Test results published in ChEMBL document CHEMBL3351373, “Five-membered heteroaromatic ring fused-pyrimidine derivatives: design, synthesis, and hedgehog signaling pathway inhibition study” (Bioorg Med Chem Lett, 2014).

Test: Inhibition of hedgehog receptor signaling pathway in mouse NIH3T3 cells transfected with Gli-reporter gene by luciferase reporter gene assay
Type: cell-based

SMILES	IC50 [nM]
Cc1cccc(C)c1NC(=O)c1ccc(Nc2nc(-c3ccc(OC(F)(F)F)cc3)c3occc3n2)cc1	1.78
Cc1ccc(CN2CCN(C)CC2)cc1NC(=O)c1ccc(Nc2nc(-c3ccc(OC(F)(F)F)cc3)c3c(ccn3C)n2)cc1	5.1
Cc1cccc(C)c1NC(=O)c1ccc(Nc2nc(-c3ccc(OC(F)(F)F)cc3)c3nc[nH]c3n2)cc1	512
CS(=O)(=O)c1ccc(C(=O)Nc2ccc(Cl)c(-c3ccccn3)c2)c(Cl)c1 [VISMODEGIB]	7.17
Cc1ccc(OCCN2CCOCC2)cc1NC(=O)c1ccc(Nc2nc(-c3ccc(OC(F)(F)F)cc3)c3nc[nH]c3n2)cc1	2.98
Cc1cccc(C)c1NC(=O)c1ccc(Nc2nc(-c3ccc(OC(F)(F)F)cc3)c3cc[nH]c3n2)cc1	6.85
Cc1ccc(CN2CCN(C)CC2)cc1NC(=O)c1ccc(Nc2nc(-c3ccc(OC(F)(F)F)cc3)c3ccsc3n2)cc1	3.36
O=C1Cc2cc(Nc3nc(-c4ccc(OC(F)(F)F)cc4)c4nc[nH]c4n3)ccc2N1	> 1000
Cc1ccc(CN2CCOCC2)cc1NC(=O)c1ccc(Nc2nc(-c3ccc(OC(F)(F)F)cc3)c3cc[nH]c3n2)cc1	6.04
Cc1cccc(C)c1NC(=O)c1ccc(Nc2nc(-c3ccc(OC(F)(F)F)cc3)c3ncn(C)c3n2)cc1	116
Cc1ccc(CN2CCN(C)CC2)cc1NC(=O)c1ccc(Nc2nc(-c3ccc(OC(F)(F)F)cc3)c3sccc3n2)cc1	9.39
Cc1cccc(C)c1NC(=O)c1ccc(Nc2nc(-c3ccc(OC(F)(F)F)cc3)c3ccn(C)c3n2)cc1	2.58
Cc1cccc(C)c1NC(=O)c1ccc(Nc2nc(-c3ccc(OC(F)(F)F)cc3)c3sccc3n2)cc1	3.61
Cc1cccc(C)c1NC(=O)c1ccc(Nc2nc(-c3ccc(OC(F)(F)F)cc3)c3[nH]ccc3n2)cc1	12.8
FC(F)(F)Oc1ccc(-c2nc(Nc3ccc4[nH]ncc4c3)nc3[nH]cnc23)cc1	399

Results, then the molecule that gave them:

IC50 [nM]	SMILES
0.9	Cc1ccc(CN2CCN(C)CC2)cc1NC(=O)c1ccc(Nc2nc(-c3ccc(OC(F)(F)F)cc3)c3nc[nH]c3n2)cc1
0.6	Cc1cccc(C)c1NC(=O)c1ccc(Nc2nc(-c3ccc(OC(F)(F)F)cc3)c3ccsc3n2)cc1
1.13	Cc1ccc(CN2CCOCC2)cc1NC(=O)c1ccc(Nc2nc(-c3ccc(OC(F)(F)F)cc3)c3occc3n2)cc1
0.69	Cc1ccc(CN2CCOCC2)cc1NC(=O)c1ccc(Nc2nc(-c3ccc(OC(F)(F)F)cc3)c3nc[nH]c3n2)cc1
0.35	Cc1ccc(CN2CCOCC2)cc1NC(=O)c1ccc(Nc2nc(-c3ccc(OC(F)(F)F)cc3)c3ncn(C)c3n2)cc1
1.75	Cc1ccc(CN2CCOCC2)cc1NC(=O)c1ccc(Nc2nc(-c3ccc(OC(F)(F)F)cc3)c3ccsc3n2)cc1
1.17	Cc1cccc(C)c1NC(=O)c1ccc(Nc2nc(-c3ccc(OC(F)(F)F)cc3)c3c(ccn3C)n2)cc1
1.39	Cc1ccc(CN2CCN(C)CC2)cc1NC(=O)c1ccc(Nc2nc(-c3ccc(OC(F)(F)F)cc3)c3[nH]ccc3n2)cc1
